One compound from patent US20250082587A1, “Method Of Treating Major Depressive Disorder” (CLEXIO BIOSCIENCES LTD., priority 2023, published 2025) can be followed below.

This test relates to subjects with MDD with an inadequate response to standard antidepressant therapy. The test can be described thus: Phase 2, randomized double blind study of 40 mg immediate release once daily esketamine as adjunct therapy; change in MADRS score. The note with it: for Change from baseline against placebo (MADRS): sub-analysis, 40 mg oral once daily. It is filed as in vivo, human. The method, then:
A Phase 2, randomized double blind study to assess the safety and efficacy of 40 mg immediate release once daily esketamine as an adjunct therapy for subjects with MDD with an inadequate response to standard antidepressant therapy.
The safety and efficacy of 65 subjects with MDD with an inadequate response to standard antidepressant therapy were assessed in a Phase 2, randomized double blind study following the administration of 40 mg of immediate release once daily esketamine as adjunct therapy.
The study comprised 3 phases, screening (Days 0-28), double-blind treatment (days 29-56) and post-treatment safety follow-up (days 57-70) following the last study treatment administration.
The study's primary efficacy endpoint was the change from baseline to week 4 in the 10 item Montgomery-Åsberg Depression Rating Scale (MADRS). Key secondary efficacy endpoints included the change in the self-rated Symptoms of Depression Questionnaire (SDQ) from Baseline to Week 4, the change in the Sheehan Disability Scale (SDS) from Baseline to Week 4, the change in the MADRS score from Baseline to Week 2 and the change in the Clinical Global Impression-Severity (CGI-S) from Baseline to Week 4.
During screening, subjects were assessed for study eligibility and washed out from disallowed drugs. Inclusion criteria for the study included the subjects presenting with a baseline MADRS of at least 24.
After being found eligible, subjects were randomized to receive once daily, either placebo or 40 mg of oral, immediate release, esketamine, respectively.
Subjects received the first dose of their study drug at the study site and were then closely monitored for 3 hours to assess for potential neuropsychiatric adverse events using a comprehensive set of scales to identify sleepiness, sedation and dissociative effects. Thereafter, the subject was provided with a 1 week supply of the study drug for administration at their place of residence and instructed to take the study drug in the evening (except at the day of the weekly visit when it is taken at the study site) and not to drive for at least 8 hours following the dosing. At every subject visit, a psychiatrist evaluated the subject's MADRS score.

On to `CN[C@]1(c2ccccc2Cl)CCCCC1=O` [esketamine, (2S)-2-(2-Chlorophenyl)-2-(methylamino)cyclohexanone], for which the “improvement in the symptoms” value (baseline MADRS of 28 or more, 40 mg immediate release oral, 28 days) is listed as “statistically significant improvement”. In addition, the “improvement in depression symptoms” value (baseline MADRS of less than 28, 40 mg immediate release oral, 28 days) is “no identifiable improvement”. For the same compound, the “Change from baseline against placebo (MADRS)” value was “+4.25” (baseline MADRS score <28, 28 days); −7.425 (baseline MADRS score ≥28, 28 days, p value 0.005); −5.978 (baseline MADRS score ≥33, 28 days, p value 0.050). The “primary efficacy endpoint (change from baseline to week 4 in MADRS) between treatment groups” value (subjects who completed the study, 40 mg oral once daily vs placebo) was “clinically meaningful and statistically significant”.
